Laboratory results reported in patent US20260125649A1, “MEDIUM COMPOSITION AND METHOD FOR CULTURING MESENCHYMAL STEM CELLS” (ACADEMIA SINICA, priority 2018, published 2026).

Columns and labels:
Format in all cases: cell-based, human
STAT3 (Tyr705) = experiment: STAT3 phosphorylation by Western blotting
Protocol: After treatment, the protein levels of total STAT3 and phospho-STAT3 (Tyr705) were examined by Western blotting. […] Cell cycle progression was investigated by flow cytometry with PI staining. Fraction of cells in each phase (G1, S, G2/M) of the cell cycle was evaluated. Cells expressing STAT3 shRNA were treated with EpEX for 18 h, after which cell cycle progression was investigated by flow cytometry with PI staining. Fraction of cells in each phase (G1, S, G2/M) of the cell cycle was evaluated. […] The protein levels of cell cycle regulators (cyclin D1, cyclin D2, cyclin E1, CDK4 and CDK9) and pluripotency factors (Oct4, Sox2, c-Myc, Lin28) were examined by Western blotting. MSCs expressing STAT3 shRNA or shLuc were stimulated with EpEX. After treatment, the protein levels of cell cycle regulators (cyclin D1, cyclin D2, cyclin E1, CDK4 and CDK9) and pluripotency factors (Oct4, Sox2, c-Myc, and Lin 28) were examined by Western blotting. […] After treatment, the gene expression of pluripotency factors (Oct4, Sox2, c-Myc, Lin28 and EpCAM) was examined by qPCR.
FIG. 8. EpEX and EGF induce the phosphorylation of EGFR and STAT3. […] The phosphorylation of EGFR (Tyr845) and STAT3 (Tyr705) were examined by Western blotting with specific antibodies.
Western blotting was performed as previously described (Takahashi et al., 2003). […]

MSCs = experiment: Cell cycle progression by flow cytometry with PI staining; conditions: inhibitor pretreatment (AG1478 25 μM, 30 min; WP1066 5 μM), then EpEX 18 h
Protocol: Phospho-EGFR (Tyr845) was detected by Western blotting. […] After treatment, cell cycle progression was investigated by flow cytometry with PI staining. Fraction of cells in each phase (G1, S, G2/M) of the cell cycle was evaluated. Cells that expressed EGFR shRNA or shLuc were treated with EpEX for 18 h. After treatment, cell cycle progression was investigated by flow cytometry with PI staining. Fraction of cells in each phase (G1, S, G2/M) of the cell cycle was evaluated. […] The protein expression of cell cycle regulators (cyclin D1, cyclin D2, cyclin E1) and pluripotency factors (Oct4, Sox2, c-Myc, Lin28) was examined by Western blotting. MSCs expressing EGFR shRNA were stimulated by EpEX. After treatment, the protein expression of cell cycle regulators (cyclin D1, cyclin E1, CDK4 and CDK9) and pluripotency factors (Oct4, in Sox2, c-Myc, and Lin 28) was examined by Western blotting. […] After treatment, the gene expression of pluripotency factors (Oct4, Sox2, c-Myc, Lin28 and EpCAM) was examined by qPCR.
After treatment, the protein levels of total STAT3 and phospho-STAT3 (Tyr705) were examined by Western blotting. […] Cell cycle progression was investigated by flow cytometry with PI staining. Fraction of cells in each phase (G1, S, G2/M) of the cell cycle was evaluated. […] Fraction of cells in each phase (G1, S, G2/M) of the cell cycle was evaluated. […]

[1] = system: TACE (Ser435), PS2 (Ser327), ERK1/2; experiment: Western blotting of phosphorylation of TACE, Presenilin 2 and ERK1/2; conditions: addition of EGFR inhibitor
Protocol: FIG. 9. EpEX induces the phosphorylation and activity of TACE and γ-secretase. MSCs were stimulated by EpEX for the indicated times, and the activity of TACE and γ-secretase were detected. MSCs were stimulated by EpEX (3 μg/mL) for the indicated times. Western blot analysis was performed to detect the phosphorylation of TACE and Presenilin 2.
FIG. 10. EpEX and EGF induce the phosphorylation of TACE, ERK1/2 and PS2. MSCs were treated with either EGF, EpEX, or co-treated with EGF and EpEX for 5 min. The phosphorylation of ERK1/2 was examined by Western blotting with specific antibodies. […] The phosphorylation of ERK1/2, TACE (Ser435), PS2 (Ser327) were examined by Western blotting with specific antibodies.
Western blotting was performed as previously described (Takahashi et al., 2003). Cells were lysed in lysis buffer (150 mM NaCl, 50 mM Tris-HCl (pH 7.4), 1% Nonidet P-40), containing a protease inhibitor mix (Roche Applied Science). Nuclear fractions and cytoplasmic fractions were separated by the Nuclear/Cytosol Fractionation Kit according to the manufacturer's instructions (BioVision Inc., Milpitas, CA, USA). Protein samples were separated by SDS-PAGE under denaturing conditions, and transferred to a PVDF membrane (Millipore). […]

[2] = system: cyclin A2, cyclin D1, cyclin D2, cyclin D3, cyclin E1, CDK4, CDK9, Oct4, Sox2, c-Myc, Lin28; experiment: Western blotting of cell cycle regulators and pluripotency factors in MSCs; conditions: pretreatment, then EpEX
Protocol: The proliferation of MSCs was examined by measuring doubling time. MSCs were treated with EpEX (3 μg/mL) for 24 and 48 h. Cell number was counted and then doubling time was calculated. MSCs were treated with EpEX (3 μg/mL) for the indicated times. After treatment, protein expression of cell cycle regulators (cyclin D1, cyclin D2, cyclin D3, cyclin E1, CDK4 and CDK9) and pluripotency factors (Oct4, Sox2, c-Myc, and Lin28) was examined by Western blotting.
Phospho-EGFR (Tyr845) was detected by Western blotting. […] After treatment, cell cycle progression was investigated by flow cytometry with PI staining. Fraction of cells in each phase (G1, S, G2/M) of the cell cycle was evaluated. Cells that expressed EGFR shRNA or shLuc were treated with EpEX for 18 h. After treatment, cell cycle progression was investigated by flow cytometry with PI staining. Fraction of cells in each phase (G1, S, G2/M) of the cell cycle was evaluated. […]
After treatment, the protein levels of total STAT3 and phospho-STAT3 (Tyr705) were examined by Western blotting. […] Fraction of cells in each phase (G1, S, G2/M) of the cell cycle was evaluated. […] Fraction of cells in each phase (G1, S, G2/M) of the cell cycle was evaluated. […]
The expression of let-7 was detected by qPCR. […] The expression of let-7 was detected by qPCR. […]

Compound: COc1cc2ncnc(Nc3cccc(Cl)c3)c2cc1OC [AG1478, reference compound]
- effect on activation of STAT3 by either EGF or EpEX (STAT3 (Tyr705); pretreatment with AG1478): can attenuate
- effect on EpEX-induced cell cycle progression (MSCs): attenuated
- effect on EpEX-induced phosphorylation of TACE [1]: can be abolished
- effect on EpEX-induced phosphorylation of presenilin-2 [1]: can be abolished
- effect on EpEX-induced protein expression of cell cycle regulators and pluripotency markers [2]: abolished

Compound: C[C@H](NC(=O)/C(C#N)=C/c1cccc(Br)n1)c1ccccc1 [WP1066, reference compound]
- effect on EpEX-induced cell cycle progression (MSCs): attenuated
- effect on EpEX-induced protein expression of cell cycle regulators and pluripotency markers [2]: blocked

Compound: EGF: cognate ligand for EGFR
- STAT3 phosphorylation (STAT3 (Tyr705); MSCs treated with the substance): can induce
